22 compounds from patent US9340551B2, “Inhibitors of bacterial type III secretion system” (MICROBIOTIX, INC., priority 2011, dated 2016) can be followed below.

SMILES strings stand for the structures. Read-outs that look alike come from different tables or passages of the source.

In data set [1] the test system is T3SS-mediated secretion of ExoS′-βLA fusion protein, P. aeruginosa strain MDM973. Kind of data set: ExoS′-βLA effector-β-lactamase secretion assay (nitrocefin cleavage). The conditions noted are these: for inhibition of ExoS′-βLA secretion, in words: FIG. 4, concentration-dependence; for IC50: Pseudomonas aeruginosa; for Secretion, % @50 μM: Table 4; for performance in T3SS-mediated secretion relative to MBX-1641, in words: α-propyl and α-isopropyl analogs; for IC50 in the ExoS′βLA assay versus reference inhibitor MBX-1641, in words: FIG. 2.

The test system of data set [2] is T3SS-mediated translocation (ExoU intoxication of CHO cells). Kind of data set: Inhibition of P. aeruginosa ExoU-dependent CHO cell killing (LDH release). The conditions noted are these: Pseudomonas aeruginosa.
The next data set has as its system HeLa cells. Kind of data set: Mammalian cytotoxicity (MTS conversion, serum-free medium). In kind it is cell-based, human. The settings on record: Table 4; average of 1-20 determinations; read-out: Ave. CC50.
Assay in data set [3]: as above
It counts as cell-based, human. The conditions noted are these: human, HeLa cells.

[4] abbreviates: read-out: Ave. Translocation IC50.
Setting [5] is: Table 4, average of 1-20 determinations, read-out: Ave. CC50.

With `CCC(Oc1ncc(Cl)cc1Cl)C(=O)NCc1ccc2sccc2c1` (racemic) [MBX-2359, N-(benzo[b]thiophen-5-ylmethyl)-2-(3,5-dichloropyridin-2-yloxy)butanamide], the “inhibition of ExoS′-βLA secretion, in words” value (“inhibition” below) in data set [1] is “potent inhibition of secretion”. In addition, in data set [1] (read-out: Ave. Secretion IC50), the IC50 (as a rule, the midpoint of a concentration-inhibition curve) was 1.5 µM.

Regarding `CC(Oc1ccc(Cl)cc1Cl)C(=O)NCc1ccc2c(c1)OCO2` (racemic) [MBX-1641, N-(benzo[d][1,3]dioxol-5-ylmethyl)-2-(2,4-dichlorophenoxy)propanamide, reference compound], the IC50 in data set [1] (read-out: Ave. Secretion IC50) was determined as 7 µM.

Consider `CCC(Oc1ncc(Cl)cc1Cl)C(=O)NCc1ccc2sccc2c1` (centres unmarked) [MBX-2401, N-(benzo[b]thiophen-5-ylmethyl)-2-(3,5-dichloropyridin-2-yloxy)butanamide], for which the “inhibition” value in data set [1] is “potent inhibition of secretion”.

As to `CCCC(Oc1ccc(Cl)cc1Cl)C(=O)NCc1ccc(OC)cc1` (centres unmarked) [MBX-2087], the melting point (as a rule, the temperature, or range, at which the solid turns liquid) was found to be 103 °C. In addition, the “Secretion, % @50 μM” value in data set [1] (@50 μM) came to 16% @50 μM.

`CCCC(Oc1ccc(Cl)cc1Cl)C(=O)NCc1ccc2c(c1)OCO2` (centres unmarked) [MBX-2085] displayed a melting point of 92 °C. The “Secretion, % @50 μM (printed in the Secretion IC50 column)” value in data set [1] (Table 3, @50 μM) is given as 14% @50 μM. For the same compound, the “Secretion, % @50 μM” value in data set [1] (@50 μM) is recorded as 14% @50 μM. In data set [1], the “performance in T3SS-mediated secretion relative to MBX-1641, in words” value is given as “significantly inferior performance”.

Compound `CCCC(Oc1ccc(Cl)cc1Cl)C(=O)NCc1ccc(OC)c(OC)c1` (centres unmarked) [MBX-2086] yielded a melting point of 82 °C. Moreover, the “Secretion, % @50 μM” value in data set [1] (@50 μM) is recorded as 18% @50 μM.

As to `COc1ccc(CNC(=O)C(C)Oc2ccc(Cl)cc2Cl)cc1` (centres unmarked) [MBX-1940], the melting point is 77 °C.

For `CC(C)C(Oc1ccc(Cl)cc1Cl)C(=O)NCc1ccc(F)cc1` (centres unmarked) [MBX-2149], the melting point turned out to be 106 °C. In addition, the IC50 in data set [1] (read-out: Ave. Secretion IC50) is 1580 µM.

For `CCC(Oc1ncc(Cl)cc1Cl)C(=O)NCc1ccc2sccc2c1` (centres unmarked) [MBX-2402, N-(benzo[b]thiophen-5-ylmethyl)-2-(3,5-dichloropyridin-2-yloxy)butanamide], the “inhibition” value in data set [1] is recorded as “little inhibitory effect”.

`CCCC(Oc1ccc(Cl)cc1Cl)C(=O)NCc1ccc(F)cc1` (centres unmarked) [MBX-2088]: the “Secretion, % @50 μM” value in data set [1] (@50 μM) was determined as 9% @50 μM.

Turning to `COc1ccc(CNC(=O)C(Oc2ccc(Cl)cc2Cl)C(C)C)cc1OC` (centres unmarked) [MBX-2147], the melting point worked out at 109 °C. Moreover, the IC50 in data set [2] (setting [4]) was more than 100 µM. For the same compound, the IC50 in data set [1] (read-out: Ave. Secretion IC50) came out at 94.9 µM.

For the compound `COc1ccc(CNC(=O)C(C)Oc2ccc(Cl)cc2Cl)cc1OC` (centres unmarked) [MBX-1942], the melting point was 127 °C.

Compound `COc1ccc(CNC(=O)C(Oc2ccc(Cl)cc2Cl)C(C)C)cc1` (centres unmarked) [MBX-2148] had a melting point of 77 °C. For the same compound, in data set [1] (read-out: Ave. Secretion IC50), the IC50 was found to be 210 µM.

On to `CCC(Oc1ccc(Cl)cc1Cl)C(=O)N(C)Cc1ccc2c(c1)OCO2` (centres unmarked) [MBX-2159], for which the results for the IC50 in data set [2] (setting [4]) and in data set [1] (read-out: Ave. Secretion IC50) were more than 100 µM and 19.1 µM, respectively.

In turn, `CCC(Oc1ccc(Cl)cc1Cl)C(=O)NCc1ccc(OC)c(OC)c1` (centres unmarked) [MBX-2082] yielded a melting point of 117 °C. Also, the IC50 in data set [2] (setting [4]) is more than 100 µM. Moreover, in data set [1] (read-out: Ave. Secretion IC50), the IC50 amounted to 16.3 µM.

Take `CCC(Oc1ccc(Cl)cc1Cl)C(=O)NCc1ccc2c(c1)OCO2` (centres unmarked) [MBX-2081]: the melting point stood at 112 °C. In addition, the CC50 (in general, the concentration that lowers cell viability or growth by half) with HeLa cells is more than 200 µM. The CC50 at 3 days in data set [3] (Table 3, serum-free media, read-out: CC50) is more than 200 µM. In data set [2] (setting [4]), the IC50 is 4.2 µM. Besides, in data set [2] (read-out: Translocation IC50), the IC50 came out at 4.2 µM. For the same compound, in data set [1], the “IC50 in the ExoS′βLA assay versus reference inhibitor MBX-1641, in words” value is reported as “improvements”. Besides, the IC50 in data set [1] (read-out: Ave. Secretion IC50) worked out at 3.9 µM. Also, the IC50 in data set [1] (read-out: Secretion IC50) was 3.9 µM. In addition, the “SI, Selectivity Index (CC50/secretion IC50)” value in data set [1] (Table 3, HeLa CC50 / secretion IC50) was more than 50. The “increase in potency as a T3SS inhibitor relative to MBX-1641” value in data set [1] (α-ethyl analog versus MBX-1641) is 3-4 fold.

`CC(C)C(Oc1ccc(Cl)cc1Cl)C(=O)NCc1ccc2c(c1)OCO2` (centres unmarked) [MBX-2146] showed a melting point of 74 °C. In addition, in data set [1] (read-out: Ave. Secretion IC50), the IC50 is 100 µM. Also, in data set [1] (read-out: Secretion IC50), the IC50 turned out to be 100 µM. In addition, the “performance in T3SS-mediated secretion relative to MBX-1641, in words” value in data set [1] is reported as “significantly inferior performance”.

Take `CCC(Oc1ccc(Cl)cc1Cl)C(=O)NCc1ccc(OC)cc1` (centres unmarked) [MBX-2083]: the melting point came to 86 °C. Also, the IC50 in data set [2] (setting [4]) is 29.3 µM. Also, in data set [1] (read-out: Ave. Secretion IC50), the IC50 was 8.1 µM.

For `CCC(Oc1ncc(Cl)cc1Cl)C(=O)NCc1ccc2c(c1)OCO2` (racemic) [MBX-2263], in data set [3] (setting [5]), the CC50 at 3 days was more than 100 µM. Moreover, the IC50 in data set [2] (setting [4]) is 17 µM. For the same compound, in data set [1], the “IC50 in the ExoS′βLA assay versus reference inhibitor MBX-1641, in words” value is listed as “improvements” and the “inhibition” value is listed as “potent inhibition of secretion”. The IC50 in data set [1] (read-out: Ave. Secretion IC50) stood at 2 µM.

As for `CC(Oc1ccc(Cl)cc1Cl)C(=O)NCc1ccc(F)cc1` (centres unmarked) [MBX-1642], the IC50 in data set [1] (read-out: Ave. Secretion IC50) is 9.8 µM.

With `CCC(Oc1ncc(Cl)cc1Cl)C(=O)NCc1ccc(F)cc1` (centres unmarked) [MBX-2264], in data set [3] (setting [5]), the CC50 at 3 days came out at 85 µM. In addition, the IC50 was 30 µM in data set [2] (setting [4]) and 2 µM in data set [1] (read-out: Ave. Secretion IC50). The “IC50 in the ExoS′βLA assay versus reference inhibitor MBX-1641, in words” value in data set [1] is reported as “improvements”.

In turn, `CCC(Oc1ccc(Cl)cc1Cl)C(=O)NCc1ccc(F)cc1` (centres unmarked) [MBX-2084] had a melting point of 108 °C. In addition, the CC50 at 3 days in data set [3] (setting [5]) was found to be 45 µM. The IC50 in data set [2] (setting [4]) was 7.4 µM. For the same compound, the IC50 in data set [1] (read-out: Ave. Secretion IC50) was 4.3 µM.
